Measured values as given in US20250195513A1, “DEGRADATION OF IRAK4 BY CONJUGATION OF IRAK4 INHIBITORS WITH E3 LIGASE LIGAND AND METHODS OF USE” (BeiGene, Ltd., priority 2022, published 2025).

Assays:
IRAK4 [1] = biological target: T1, IRAK4 (Homo sapiens, UniProt Q9NWZ3); assay: IRAK4 Degradation Assay with Human Serum (Karpas299, HTRF/TR-FRET); type: cell-based; settings: Karpas-299 in human serum, 24 hrs treatment; for DC50: read-out: IRAK4 degradtion with human serum assay DC50; for Dmax: read-out: IRAK4 degradtion with human serum assay Dmax (%)
T1 construct: endogenous in cells; host or cells: Karpas299
T1 sequence (Q9NWZ3 1-460): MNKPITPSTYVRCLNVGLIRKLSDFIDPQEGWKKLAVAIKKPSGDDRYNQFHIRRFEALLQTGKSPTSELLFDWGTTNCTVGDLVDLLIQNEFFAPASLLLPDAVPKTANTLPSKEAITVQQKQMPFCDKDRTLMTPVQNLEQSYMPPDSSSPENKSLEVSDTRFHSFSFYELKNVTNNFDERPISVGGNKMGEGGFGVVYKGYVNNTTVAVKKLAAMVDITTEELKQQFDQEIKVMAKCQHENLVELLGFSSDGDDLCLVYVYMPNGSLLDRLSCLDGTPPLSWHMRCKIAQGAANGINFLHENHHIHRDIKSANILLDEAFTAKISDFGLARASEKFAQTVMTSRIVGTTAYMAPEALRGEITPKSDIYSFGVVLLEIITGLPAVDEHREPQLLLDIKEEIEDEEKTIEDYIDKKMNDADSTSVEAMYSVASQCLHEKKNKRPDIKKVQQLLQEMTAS
Procedure, shortened: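 Karpas299 cells in human AB serum (0.2 million/well) treated with serial compound dilutions for 24 h. After lysis, IRAK4 quantified by HTRF (overnight antibody incubation at room temperature, 665/620 nm read). Degradation percentage fitted to four-parameter curve to give DC50.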

IRAK4 [2] = biological target: T1, IRAK4; assay: IRAK4 Degradation Assay (Karpas299, HTRF/TR-FRET); type: cell-based; settings: Karpas-299 cells, 24 h treatment; for Dmax: read-out: IRAK4 in Karpas-299 (24 h) Dmax (%); for DC50: read-out: IRAK4 in Karpas-299 (24 h) DC50
Procedure, shortened: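 Karpas299 cells at 0.2 million per well were exposed to serially diluted compounds for 24 h or 5 h, then lysed. IRAK4 remaining in lysates was quantified by HTRF (665/620 nm) after overnight antibody incubation at room temperature. Percent degradation was fitted to a four-parameter curve to give IC50 (DC50).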

[3] = maximum percentage of degradation

SMILES	DC50 (IRAK4 [1])	Dmax (IRAK4 [1])	Dmax (IRAK4 [2]; [3])	DC50 (IRAK4 [2])	IRAK4 degradtion with human serum assay Dmax (%) (IRAK4 [1])	IRAK4 in Karpas-299 (24 h) Dmax (%) (IRAK4 [2]; [3])
CC(C)(O)c1cc2nn([C@H]3CC[C@H](N4CCN([C@@H]5CCN(c6ccc(N7CCC(=O)NC7=O)cc6)C5)CC4)CC3)cc2cc1NC(=O)c1ccc2cc(C#N)cnn12 [Example 294, 3-cyano-N-(2-((1R,4r)-4-(4-((R)-1-(4-(2,4-dioxotetrahydropyrimidin-1(2H)-yl)phenyl)pyrrolidin-3-yl)piperazin-1-yl)cyclohexyl)-6-(2-hydroxypropan-2-yl)-2H-indazol-5-yl)pyrrolo[1,2-b]pyridazine-7-carboxamide]	14 nM	98%	97%	3.4 nM		
Cc1cc(N2CCC(N3CCN([C@H]4CC[C@H](n5cc6cc(NC(=O)c7ccc8cc(C#N)cnn78)c(C(C)(C)O)cc6n5)CC4)CC3)CC2)cc(C)c1[C@H]1CCC(=O)NC1=O [Example 289, 3-cyano-N-(2-((1r,4r)-4-(4-(1-(4-((R)-2,6-dioxopiperidin-3-yl)-3,5-dimethylphenyl)piperidin-4-yl)piperazin-1-yl)cyclohexyl)-6-(2-hydroxypropan-2-yl)-2H-indazol-5-yl)pyrrolo[1,2-b]pyridazine-7-carboxamide]	19 nM	98%	98%	1.3 nM		
C[C@@H]1CN([C@H]2CC[C@H](n3cc4cc(NC(=O)c5ccc6cc(C#N)cnn56)c(C(C)(C)O)cc4n3)CC2)CCN1CC1CN(c2cc(F)c([C@H]3CCC(=O)NC3=O)c(F)c2)C1 [Example 310, 3-cyano-N-(2-((1R,4r)-4-((R)-4-((1-(4-((R)-2,6-dioxopiperidin-3-yl)-3,5-difluorophenyl)azetidin-3-yl)methyl)-3-methylpiperazin-1-yl)cyclohexyl)-6-(2-hydroxypropan-2-yl)-2H-indazol-5-yl)pyrrolo[1,2-b]pyridazine-7-carboxamide]	3.2 nM	102%	98%	0.6 nM		
CC(C)(O)c1cc2nn([C@H]3CC[C@H](N4CCN([C@H]5C[C@H](c6ccc(N[C@@H]7CCC(=O)NC7=O)cc6)C5)CC4)CC3)cc2cc1NC(=O)c1ccc2cc(C#N)cnn12 [Example 272, 3-cyano-N-(2-((1R,4r)-4-(4-((1R,3R)-3-(4-(((R)-2,6-dioxopiperidin-3-yl)amino)phenyl)cyclobutyl)piperazin-1-yl)cyclohexyl)-6-(2-hydroxypropan-2-yl)-2H-indazol-5-yl)pyrrolo[1,2-b]pyridazine-7-carboxamide]	19 nM	94%	96%	6.7 nM		
CC(C)(O)c1cc2nn([C@H]3CC[C@H](N4CCN(CC5CN(c6cc(F)c([C@H]7CCC(=O)NC7=O)c(F)c6)C5)CC4)CC3)cc2cc1NC(=O)c1ccc2n1NCC(C#N)=C2 [Example 397, 3-cyano-N-(2-((1r,4r)-4-(4-((1-(4-((R)-2,6-dioxopiperidin-3-yl)-3,5-difluorophenyl)azetidin-3-yl)methyl)piperazin-1-yl)cyclohexyl)-6-(2-hydroxypropan-2-yl)-2H-indazol-5-yl)-1,2-dihydropyrrolo[1,2-b]pyridazine-7-carboxamide]	12 nM			1.7 nM	96%	95%
COc1cc(N2CC[C@@H](C(=O)N3CCN([C@H]4CC[C@H](n5cc6cc(NC(=O)c7ccc8cc(C#N)cnn78)c(C(C)(C)O)cc6n5)CC4)CC3)C2)cc(F)c1N1CCC(=O)NC1=O [Example 212, 3-cyano-N-(2-((1R,4r)-4-(4-((R)-1-(4-(2,4-dioxotetrahydropyrimidin-1(2H)-yl)-3-fluoro-5-methoxyphenyl)pyrrolidine-3-carbonyl)piperazin-1-yl)cyclohexyl)-6-(2-hydroxypropan-2-yl)-2H-indazol-5-yl)pyrrolo[1,2-b]pyridazine-7-carboxamide]	40 nM	95%	94%	3.6 nM		
C[C@H]1CN(CC2CN(c3cc(F)c([C@H]4CCC(=O)NC4=O)c(F)c3)C2)CCN1[C@H]1CC[C@H](n2cc3cc(NC(=O)c4ccc5cc(C#N)cnn45)c(C(C)(C)O)cc3n2)CC1 [Example 306, 3-cyano-N-(2-((1S,4r)-4-((S)-4-((1-(4-((R)-2,6-dioxopiperidin-3-yl)-3,5-difluorophenyl)azetidin-3-yl)methyl)-2-methylpiperazin-1-yl)cyclohexyl)-6-(2-hydroxypropan-2-yl)-2H-indazol-5-yl)pyrrolo[1,2-b]pyridazine-7-carboxamide]	8.3 nM	100%	98%	1.3 nM		
CC(C)(O)c1cc2nn([C@H]3CC[C@H](N4CCN(C(=O)[C@@H]5CCN(c6ccc(N7CCC(=O)NC7=O)cc6)C5)CC4)CC3)cc2cc1NC(=O)c1ccc2cc(C#N)cnn12 [Example 263, 3-cyano-N-(2-((1R,4r)-4-(4-((R)-1-(4-(2,4-dioxotetrahydropyrimidin-1(2H)-yl)phenyl)pyrrolidine-3-carbonyl)piperazin-1-yl)cyclohexyl)-6-(2-hydroxypropan-2-yl)-2H-indazol-5-yl)pyrrolo[1,2-b]pyridazine-7-carboxamide]	15 nM	99%	96%	2.6 nM		
CC(C)(O)c1cc2nn([C@H]3CC[C@H](N4CCN(C(=O)C5CN(c6ccc(N7CCC(=O)NC7=O)cc6)C5)CC4)CC3)cc2cc1NC(=O)c1ccc2cc(C#N)cnn12 [Example 265, 3-cyano-N-(2-((1r,4r)-4-(4-(1-(4-(2,4-dioxotetrahydropyrimidin-1(2H)-yl)phenyl)azetidine-3-carbonyl)piperazin-1-yl)cyclohexyl)-6-(2-hydroxypropan-2-yl)-2H-indazol-5-yl)pyrrolo[1,2-b]pyridazine-7-carboxamide]	21 nM	99%	97%	2.6 nM		
CC(C)(O)c1cc2nn([C@H]3CC[C@H](N4CCN(C[C@H]5CCN(c6ccc7c(c6)C(=O)N(C6CCC(=O)NC6=O)C7=O)C5)CC4)CC3)cc2cc1NC(=O)c1ccc2cc(C#N)cnn12 (stereo partly drawn) [Example 432, 3-cyano-N-(2-((1R,4r)-4-(4-(((3R)-1-(2-(2,6-dioxopiperidin-3-yl)-1,3-dioxoisoindolin-5-yl)pyrrolidin-3-yl)methyl)piperazin-1-yl)cyclohexyl)-6-(2-hydroxypropan-2-yl)-2H-indazol-5-yl)pyrrolo[1,2-b]pyridazine-7-carboxamide]	14 nM	92%	95%	1.9 nM		
COC[C@H]1CN(C2CCN(c3ccc(C4CCC(=O)NC4=O)nc3C)CC2)CCN1[C@H]1CC[C@H](n2cc3cc(NC(=O)c4ccc5cc(C#N)cnn45)c(C(C)(C)O)cc3n2)CC1 (stereo partly drawn) [Example 415, 3-cyano-N-(2-((1R,4r)-4-((2R)-4-(1-(6-(2,6-dioxopiperidin-3-yl)-2-methylpyridin-3-yl)piperidin-4-yl)-2-(methoxymethyl)piperazin-1-yl)cyclohexyl)-6-(2-hydroxypropan-2-yl)-2H-indazol-5-yl)pyrrolo[1,2-b]pyridazine-7-carboxamide]	8.6 nM	98%	97%	1.4 nM		
